The text below walks through data of US8106155B2, “Test kit for determining process for determining antibiotics containing a beta-lactam ring in a biological fluid” (Neogen Corporation, priority 1998, dated 2012).

Read-outs that look alike come from different tables or passages of the source.

Assay [1] has as its target T1, BlaR-CTD receptor in the form of two fusion proteins with alkaline phosphatase and peroxidase (Bacillus licheniformis, UniProt P12287).
T1 construct: uses the BlaR-CTD receptor in the form of two fusion proteins with alkaline phosphatase and peroxidase, respectively; alkaline phosphatase, chemically coupled (Boehringer-Mannheim 1464752); peroxidase, chemically coupled (Boehringer-Mannheim 1428861)
As to the kind of experiment: Example 3: BlaR-CTD fusion proteins with alkaline phosphatase and peroxidase, cephalosporin C microplate, milk. It is filed as binding. Particulars: absorbance at 405 nm, 47° C., at the control thresholds required by the US authorities. The source says:
This example illustrates the detection in milk of 3 antibiotics containing a β-lactam ring which are controlled by the health authorities. The test described in this example uses the BlaR-CTD receptor in the form of two fusion proteins with alkaline phosphatase and peroxidase, respectively, and uses a support in the form of a microplate.
Polystyrene microplates with high protein adsorption, of the brand name NUNK (Immuno Plate: Maxisorp type) or of the brand name GREINER (microlon 600, reference 705071), are used. The microplate cuvettes are washed with 150 mM, pH 7.2 PBS buffer. Next, an aliquot of the solution prepared in Example 3.3.1. is incubated for 24 hours at 4° C. in the cuvettes. After incubation, the cuvettes are washed three times with 150 mM, pH 7.2 PBS buffer, 0.1% Tween-20. The tube is then saturated for two hours at 20° C. with 150 mM, pH 7.2 PBS saturation buffer, 5% BSA. After washing three times with washing buffer, the tubes are dried and stored at 4° C. away from moisture.
For the cuvettes intended for the BlaR-CTD-alkaline phosphatase recognition agent, the washing buffer used is 1 M, pH 9.8 diethanolamine, 0.5 mM MgCl2: for the cuvettes intended for the BlaR-CTD-peroxidase recognition agent, the washing buffer used is 50 mM, pH 5 potassium phosphate.
1.4 picomol of labelled recognition agent are incubated in the presence of 100 μl of doped milk for 5 minutes at 47° C. The milk is transferred using a pipette into a cuvette which has been pretreated as indicated in Example 2.3. The milk is then incubated for 2 minutes at 47° C. […] The plate is then placed in an automatic spectrophotometer for ELISA plates, the wavelength being set at 405 nm.

Assay [2] has as its system protein isolated from an antibiotic-sensitive microorganism, such as Bacillus stearothermophilus. Particulars: Example 1 of European Patent Application 593 112; cited from earlier work.
Assay [3] concerns the target T2, BlaR-CTD receptor (Bacillus licheniformis, UniProt P12287).
T2 construct: uses the BlaR-CTD receptor coupled to gold beads
Put plainly: 20-minute test: BlaR-CTD coupled to gold beads, membrane test device, milk. Conditions: 47° C.; for Intensity 1st band: 20-minute test, scale 0 to 10, reference band 6. It is filed as binding. As for the experimental part: (§1) This example illustrates the detection in milk of antibiotics containing a β-lactam ring, which are controlled by the health authorities. The test described in this example uses the BlaR-CTD receptor coupled to gold beads which serve as labelling agents, and uses a support in the form of a test device comprising a solid support to which membranes are attached.
6 samples of fresh milk containing 0; 20; 30; 40; 50 and 60 ppb of ceftiofur, respectively, are prepared. Each of these solutions is then analyzed in the following way.
A 200 μl aliquot sample of milk and 45.27 μl of solution prepared in Example 1.1.3 are taken and placed in a glass flask. This mixture is incubated for 18 minutes at 47° C. A test device is taken and placed vertically in the glass flask such that the first end of the test device is in contact with the mixture and such that the second end rests on the wall of the glass flask. The mixture is left to migrate on the test device, while incubating the assembly for 2 minutes at 47° C.
An intensity value ranging from 0 to 10 is attributed to the bands detected, the value 10 being given to the most intense band and the value 0 being given to the least intense band. According to this scale, a value of 6 is assigned to the reference band. The intensity of the signal observed in the first band is inversely proportional to the amount of ceftiofur present in the sample.
In this example, when the first band has an intensity less than that of the second band, the test is considered as being positive.

The target in assay [4] is T3, BlaR-CTD receptor in the form of a fusion protein with alkaline phosphatase or peroxidase (Bacillus licheniformis, UniProt P12287).
T3 construct: uses the BlaR-CTD receptor in the form of a fusion protein with alkaline phosphatase or peroxidase
T3 sequence (P12287 354-601): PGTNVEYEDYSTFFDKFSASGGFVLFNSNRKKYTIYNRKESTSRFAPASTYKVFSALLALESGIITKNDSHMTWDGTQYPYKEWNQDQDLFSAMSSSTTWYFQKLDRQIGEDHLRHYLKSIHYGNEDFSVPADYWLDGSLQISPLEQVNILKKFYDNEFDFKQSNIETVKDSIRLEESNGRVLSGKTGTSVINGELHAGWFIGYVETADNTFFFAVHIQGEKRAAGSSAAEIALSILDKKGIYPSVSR
Put plainly: Example 4: BlaR-CTD fusion protein with alkaline phosphatase or peroxidase, coated tube, milk. It is filed as binding. Conditions: absorbance at 405 nm, 47° C. As for the experimental part: The test described in this example uses the BlaR-CTD receptor in the form of a fusion protein with alkaline phosphatase or peroxidase, and uses a support in the form of a coated tube.
In this example, polystyrene tubes with high protein absorption of the brand name NUNK (Maxisorp type) are used, which are treated with a reference antibiotic solution as indicated in Example 3.3.2.
7 picomol of recognition agent are incubated in the presence of 500 μl of milk for 5 minutes at 47° C. in an Eppendorf tube. […] The milk is then incubated for 2 minutes at 47° C. After removing the milk, the tube is washed twice with 1 ml of 1 M, pH 9.8 diethanolamine buffer, 0.5 mM MgCl2. […] The absorbance of the supernatant is then measured using a spectrophotometer whose wavelength is set at 405 nm.

Assay [5] concerns the target T2, BlaR-CTD receptor. Put plainly: 3-minute rapid test: BlaR-CTD coupled to gold beads, membrane test device, milk. It is filed as binding. Particulars: 47° C.; for concentration detected in a sample of milk: test carried out in 3 minutes, positive when 1st band less intense than 2nd band; for Intensity 1st band: 3-minute test, scale 0 to 10, reference band 6. The procedure: as §1
7 samples of fresh milk containing 0; 1; 2; 3; 4; 5 and 6 ppb of penicillin G, respectively, are prepared. Each of these solutions is then analyzed in the following way:
A 200 μl aliquot sample of milk and 45.27 μl of solution prepared in Example 1.1.3 are taken and placed in a glass flask. This mixture is incubated for 1 minute at 47° C. A test device is taken and placed vertically in the glass flask such that the first end of the test device is in contact with the mixture and such that the second end rests on the wall of the glass flask. The mixture is left to migrate on the test device, while incubating the assembly for 2 minutes at 47° C.
An intensity value ranging from 0 to 10 is attributed to the bands detected, the value 10 being given to the most intense band and the value 0 being given to the least intense band. According to this scale, a value of 6 is assigned to the reference band. The intensity of the signal observed in the first band is inversely proportional to the amount of penicillin G present in the sample.
In this example, when the first band has an intesity less than that of the second band, the test is considered as being positive.

Assay [6] has as its target soluble exocellular D-alanyl-D-alanine carboxypeptidase (enzyme R39) (Actinomadura sp., UniProt P39045). Conditions: cited from earlier work.

T2 sequence (P12287 354-601): as above
T1 sequence (P12287 354-601): as above
soluble exocellular D-alanyl-D-alanine carboxypeptidase (enzyme R39), sequence (P39045 50-515): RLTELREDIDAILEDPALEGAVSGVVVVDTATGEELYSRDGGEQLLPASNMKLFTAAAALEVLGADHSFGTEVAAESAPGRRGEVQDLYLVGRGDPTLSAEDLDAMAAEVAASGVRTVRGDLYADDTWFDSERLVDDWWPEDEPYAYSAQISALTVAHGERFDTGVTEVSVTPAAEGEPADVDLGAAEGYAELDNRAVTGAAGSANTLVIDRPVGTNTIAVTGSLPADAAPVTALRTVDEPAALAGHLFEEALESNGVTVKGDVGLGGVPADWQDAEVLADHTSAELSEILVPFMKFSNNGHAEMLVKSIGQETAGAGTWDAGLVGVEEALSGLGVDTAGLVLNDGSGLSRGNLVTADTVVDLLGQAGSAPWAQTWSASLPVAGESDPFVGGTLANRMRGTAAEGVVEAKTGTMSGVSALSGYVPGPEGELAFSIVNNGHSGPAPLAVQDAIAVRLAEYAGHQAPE

Take `CO/N=C(\C(=O)N[C@@H]1C(=O)N2C(C(=O)O)=C(CSC(=O)c3ccco3)CS[C@H]12)c1csc(N)n1` [ceftiofur]: the “concentration detected in milk” value in assay [1] is 50 ppb. For the same compound, the concentration detected in assay [2] was 5 ppb. The “Intensity 1st band” value stood at 6 at BlaR-CTD receptor [3] (20 ppb ceftiofur in milk); 5 on BlaR-CTD receptor [3] (30 ppb ceftiofur in milk); 4 at BlaR-CTD receptor [3] (40 ppb ceftiofur in milk); 3 at BlaR-CTD receptor [3] (50 ppb ceftiofur in milk); 3 at BlaR-CTD receptor [3] (60 ppb ceftiofur in milk). The “concentration detected in a sample of milk” value at BlaR-CTD receptor [3] (test in 20 minutes, positive when 1st band less intense than 2nd band) amounted to 30 ppb. Moreover, in assay [4], the “concentration determined in milk” value is reported as “less than 50 ppb”.

With `CC(=O)OCC1=C(C(=O)O)N2C(=O)[C@@H](NC(=O)CSc3ccncc3)[C@H]2SC1` [cephapirin], the concentration detected in assay [2] is 5 ppb. The “concentration detected in a sample of milk” value on BlaR-CTD receptor [5] was 20 ppb. In addition, the “concentration determined in milk” value in assay [4] is given as “less than 20 ppb”.

Take `CC1(C)S[C@@H]2[C@H](NC(=O)Cc3ccccc3)C(=O)N2[C@H]1C(=O)O` [penicillin G]: the figures for the “concentration determined in milk” value in assay [6] (total incubation time of 5 minutes), in assay [6] (total incubation time of 15 minutes) and in assay [4] were 10 ppb, “about 2.5 ppb” and “less than 5 ppb”, respectively. In addition, the “concentration detected in milk” value in assay [1] is 5 ppb. In addition, the concentration detected in assay [2] was about 5 ppb. Further, the “Intensity 1st band” value was 9 on BlaR-CTD receptor [5] (1 ppb penicillin G in milk); 9 at BlaR-CTD receptor [5] (2 ppb penicillin G in milk); 4 at BlaR-CTD receptor [5] (3 ppb penicillin G in milk); 0 on BlaR-CTD receptor [5] (4 ppb penicillin G in milk); 0 on BlaR-CTD receptor [5] (5 ppb penicillin G in milk); 0 at BlaR-CTD receptor [5] (6 ppb penicillin G in milk). On BlaR-CTD receptor [5], the “concentration detected in a sample of milk” value is recorded as “less than 4 ppb”.
